Results reported in the kinase profiling compilation of Christmann-Franck et al. (2016).

Columns and labels:
Assay in all cases: KINOMEscan competition binding
Conditions in all cases: compound 10.0 µM
[1] = molecular target: OXSR1 (human) (UniProt O95747)
[2] = molecular target: MATK (human) (UniProt P42679)
[3] = molecular target: RPS6KB1 (human) (UniProt P23443)
[4] = molecular target: NEK11 (human) (UniProt Q8NG66)
[5] = molecular target: MAP3K13 (human) (UniProt O43283)
[6] = molecular target: STK38 (human) (UniProt Q15208)
[7] = molecular target: EIF2AK1 (human) (UniProt Q9BQI3)
[8] = molecular target: PLK2 (human) (UniProt Q9NYY3)
[9] = test system: PIK3CA (human), P42336 [E545A]
[10] = test system: KIT (human), P10721 [A829P]
[11] = molecular target: DYRK1A (human) (UniProt Q13627)
[12] = test system: FLT3 (human), P36888 [R834Q]
[13] = molecular target: BRAF (human) (UniProt P15056)
[14] = test system: BRAF (human), P15056 [V600E]
[15] = test system: ABL1 (human), P00519 [H396P]

Sequence of EIF2AK1 (human) (Q9BQI3 whole entry, looked up): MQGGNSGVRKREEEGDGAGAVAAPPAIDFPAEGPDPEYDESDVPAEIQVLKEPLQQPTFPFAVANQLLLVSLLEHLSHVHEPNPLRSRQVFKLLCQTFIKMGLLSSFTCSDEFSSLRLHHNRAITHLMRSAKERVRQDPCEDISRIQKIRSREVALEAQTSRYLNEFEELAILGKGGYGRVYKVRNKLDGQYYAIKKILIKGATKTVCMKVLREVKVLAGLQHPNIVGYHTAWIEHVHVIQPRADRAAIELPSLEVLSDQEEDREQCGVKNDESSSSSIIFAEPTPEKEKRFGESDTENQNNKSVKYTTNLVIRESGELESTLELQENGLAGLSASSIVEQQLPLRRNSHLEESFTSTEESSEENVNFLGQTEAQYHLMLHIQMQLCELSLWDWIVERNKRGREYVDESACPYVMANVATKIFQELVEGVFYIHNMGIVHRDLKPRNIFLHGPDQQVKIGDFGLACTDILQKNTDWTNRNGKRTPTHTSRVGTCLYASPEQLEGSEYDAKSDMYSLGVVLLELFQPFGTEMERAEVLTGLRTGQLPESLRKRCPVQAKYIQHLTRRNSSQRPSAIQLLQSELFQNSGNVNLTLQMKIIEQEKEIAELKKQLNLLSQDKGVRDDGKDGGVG
Sequence of OXSR1 (human) (O95747 whole entry, looked up): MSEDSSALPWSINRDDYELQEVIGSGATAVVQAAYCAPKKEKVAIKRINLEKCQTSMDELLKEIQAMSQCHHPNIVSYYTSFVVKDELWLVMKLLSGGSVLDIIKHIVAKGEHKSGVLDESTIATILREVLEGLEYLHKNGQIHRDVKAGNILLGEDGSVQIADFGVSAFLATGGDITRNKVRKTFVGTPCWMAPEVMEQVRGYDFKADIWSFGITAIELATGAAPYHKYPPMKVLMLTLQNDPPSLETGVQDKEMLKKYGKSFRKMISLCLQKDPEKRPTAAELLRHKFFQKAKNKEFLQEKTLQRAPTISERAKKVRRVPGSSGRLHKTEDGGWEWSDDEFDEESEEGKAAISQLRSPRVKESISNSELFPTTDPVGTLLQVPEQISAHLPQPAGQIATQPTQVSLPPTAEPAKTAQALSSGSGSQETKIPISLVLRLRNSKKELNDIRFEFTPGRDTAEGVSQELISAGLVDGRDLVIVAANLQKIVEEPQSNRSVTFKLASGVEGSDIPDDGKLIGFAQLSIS
Sequence of MAP3K13 (human) (O43283 whole entry, looked up): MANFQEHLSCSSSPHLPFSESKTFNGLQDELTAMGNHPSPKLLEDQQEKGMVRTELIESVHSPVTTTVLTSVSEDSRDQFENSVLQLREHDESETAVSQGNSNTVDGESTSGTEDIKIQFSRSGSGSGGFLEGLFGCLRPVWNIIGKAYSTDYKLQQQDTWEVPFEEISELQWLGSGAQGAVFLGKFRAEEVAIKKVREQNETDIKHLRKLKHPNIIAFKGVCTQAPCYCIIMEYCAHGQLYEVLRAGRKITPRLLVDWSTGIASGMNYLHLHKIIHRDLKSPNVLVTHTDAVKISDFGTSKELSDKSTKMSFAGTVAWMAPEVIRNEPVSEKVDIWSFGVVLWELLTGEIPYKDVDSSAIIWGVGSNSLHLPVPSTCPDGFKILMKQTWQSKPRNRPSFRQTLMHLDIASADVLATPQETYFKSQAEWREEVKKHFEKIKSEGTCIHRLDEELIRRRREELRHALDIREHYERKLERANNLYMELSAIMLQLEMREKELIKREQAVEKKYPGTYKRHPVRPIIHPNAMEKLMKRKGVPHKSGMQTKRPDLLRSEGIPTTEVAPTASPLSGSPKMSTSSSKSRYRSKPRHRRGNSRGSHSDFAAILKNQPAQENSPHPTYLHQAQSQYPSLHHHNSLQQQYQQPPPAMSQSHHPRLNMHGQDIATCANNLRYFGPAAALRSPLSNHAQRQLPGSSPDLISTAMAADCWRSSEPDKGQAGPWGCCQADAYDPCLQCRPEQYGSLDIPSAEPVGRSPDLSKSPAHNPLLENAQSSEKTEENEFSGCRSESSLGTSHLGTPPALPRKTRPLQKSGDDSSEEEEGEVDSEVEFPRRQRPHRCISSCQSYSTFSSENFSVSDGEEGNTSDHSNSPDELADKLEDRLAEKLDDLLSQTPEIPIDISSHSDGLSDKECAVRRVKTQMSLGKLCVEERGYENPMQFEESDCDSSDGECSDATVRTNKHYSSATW
Sequence of PIK3CA (human), P42336 [E545A] (P42336 whole entry E545A, looked up): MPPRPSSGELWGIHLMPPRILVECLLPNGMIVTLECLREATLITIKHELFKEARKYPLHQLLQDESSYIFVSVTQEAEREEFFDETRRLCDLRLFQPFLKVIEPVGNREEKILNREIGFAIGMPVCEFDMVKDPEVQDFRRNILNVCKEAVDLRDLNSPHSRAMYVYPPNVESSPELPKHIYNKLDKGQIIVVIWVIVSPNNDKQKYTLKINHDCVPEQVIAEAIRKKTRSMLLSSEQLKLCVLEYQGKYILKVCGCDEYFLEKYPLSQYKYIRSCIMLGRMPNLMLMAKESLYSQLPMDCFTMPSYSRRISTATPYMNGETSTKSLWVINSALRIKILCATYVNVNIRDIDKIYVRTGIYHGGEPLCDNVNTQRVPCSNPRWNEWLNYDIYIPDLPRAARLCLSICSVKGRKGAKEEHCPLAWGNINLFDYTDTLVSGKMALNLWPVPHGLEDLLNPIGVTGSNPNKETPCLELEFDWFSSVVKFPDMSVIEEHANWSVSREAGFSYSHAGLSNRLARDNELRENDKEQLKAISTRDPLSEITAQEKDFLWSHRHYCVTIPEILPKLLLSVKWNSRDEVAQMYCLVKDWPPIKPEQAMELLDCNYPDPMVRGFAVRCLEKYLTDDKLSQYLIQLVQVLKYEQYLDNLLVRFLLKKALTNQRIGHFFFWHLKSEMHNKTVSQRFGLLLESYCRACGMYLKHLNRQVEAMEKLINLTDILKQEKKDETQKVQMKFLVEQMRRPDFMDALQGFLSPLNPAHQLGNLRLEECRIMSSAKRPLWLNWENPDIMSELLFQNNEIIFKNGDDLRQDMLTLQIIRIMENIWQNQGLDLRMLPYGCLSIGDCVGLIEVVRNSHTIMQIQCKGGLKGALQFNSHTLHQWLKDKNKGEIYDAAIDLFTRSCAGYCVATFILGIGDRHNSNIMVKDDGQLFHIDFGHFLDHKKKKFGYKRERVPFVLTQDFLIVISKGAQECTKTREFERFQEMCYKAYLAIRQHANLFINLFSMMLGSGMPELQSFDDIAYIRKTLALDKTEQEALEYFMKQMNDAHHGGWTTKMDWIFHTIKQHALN
Sequence of NEK11 (human) (Q8NG66 whole entry, looked up): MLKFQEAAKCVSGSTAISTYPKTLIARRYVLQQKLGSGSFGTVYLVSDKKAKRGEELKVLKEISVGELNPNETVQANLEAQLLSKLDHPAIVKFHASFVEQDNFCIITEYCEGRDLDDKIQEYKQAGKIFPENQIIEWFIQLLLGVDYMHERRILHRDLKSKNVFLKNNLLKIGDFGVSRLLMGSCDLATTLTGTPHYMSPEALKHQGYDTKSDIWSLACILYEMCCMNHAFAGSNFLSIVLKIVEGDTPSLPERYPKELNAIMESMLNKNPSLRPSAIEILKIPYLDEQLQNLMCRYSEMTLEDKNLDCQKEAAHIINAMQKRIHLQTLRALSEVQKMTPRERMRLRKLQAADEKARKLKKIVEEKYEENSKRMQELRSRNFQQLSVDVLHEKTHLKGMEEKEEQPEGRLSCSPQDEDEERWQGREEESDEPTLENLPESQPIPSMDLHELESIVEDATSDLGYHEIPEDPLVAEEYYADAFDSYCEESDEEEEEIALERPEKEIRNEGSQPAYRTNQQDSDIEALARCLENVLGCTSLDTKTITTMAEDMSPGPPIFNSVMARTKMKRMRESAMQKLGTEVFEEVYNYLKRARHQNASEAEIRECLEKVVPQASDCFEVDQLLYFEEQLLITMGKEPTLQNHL
Sequence of KIT (human), P10721 [A829P] (P10721 whole entry A829P, looked up): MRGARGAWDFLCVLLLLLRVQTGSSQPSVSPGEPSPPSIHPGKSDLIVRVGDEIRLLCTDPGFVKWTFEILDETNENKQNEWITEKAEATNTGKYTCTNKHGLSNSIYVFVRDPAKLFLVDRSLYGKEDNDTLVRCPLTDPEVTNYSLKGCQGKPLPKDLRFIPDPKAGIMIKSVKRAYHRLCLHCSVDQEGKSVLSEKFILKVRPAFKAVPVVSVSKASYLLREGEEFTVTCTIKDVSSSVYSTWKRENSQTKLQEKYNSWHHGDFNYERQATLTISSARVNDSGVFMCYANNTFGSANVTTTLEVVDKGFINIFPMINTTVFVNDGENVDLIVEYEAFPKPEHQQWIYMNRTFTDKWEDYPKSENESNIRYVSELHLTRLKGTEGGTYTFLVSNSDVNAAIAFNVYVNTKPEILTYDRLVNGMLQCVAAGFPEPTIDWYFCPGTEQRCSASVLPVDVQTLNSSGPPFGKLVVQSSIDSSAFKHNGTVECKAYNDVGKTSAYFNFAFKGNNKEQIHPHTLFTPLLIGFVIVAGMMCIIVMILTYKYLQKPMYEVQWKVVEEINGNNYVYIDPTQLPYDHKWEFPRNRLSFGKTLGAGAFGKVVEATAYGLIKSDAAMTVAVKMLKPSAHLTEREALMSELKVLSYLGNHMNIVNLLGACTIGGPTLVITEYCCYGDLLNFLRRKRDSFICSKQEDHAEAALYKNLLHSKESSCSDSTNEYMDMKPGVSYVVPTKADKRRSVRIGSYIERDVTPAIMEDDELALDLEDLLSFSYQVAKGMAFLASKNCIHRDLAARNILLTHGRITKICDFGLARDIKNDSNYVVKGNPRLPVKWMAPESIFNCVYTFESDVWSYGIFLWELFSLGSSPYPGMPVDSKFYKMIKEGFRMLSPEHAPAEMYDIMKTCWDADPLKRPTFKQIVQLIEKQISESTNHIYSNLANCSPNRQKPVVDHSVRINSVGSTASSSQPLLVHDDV

## CCN1CCN(Cc2ccc(NC(=O)c3ccc(C)c(/C=C/c4cnc(Nc5cc(N6CCNCC6)nc(C)n5)cn4)c3)cc2C(F)(F)F)CC1
[1]
  kinase still bound, per cent of control: 76%
[2]
  kinase still bound, per cent of control: 100%
[3]
  kinase still bound, per cent of control: 6.2%
[4]
  kinase still bound, per cent of control: 40%
[5]
  kinase still bound, per cent of control: 6.6%
[6]
  kinase still bound, per cent of control: 79%
[7]
  kinase still bound, per cent of control: 100%
[8]
  kinase still bound, per cent of control: 69%
[9]
  kinase still bound, per cent of control: 100%
[10]
  kinase still bound, per cent of control: 33%
[11]
  kinase still bound, per cent of control: 44%
[12]
  kinase still bound, per cent of control: 8.6%

## COc1cc(N2CCC(N3CCN(C)CC3)CC2)ccc1Nc1ncc(Cl)c(Nc2ccccc2S(=O)(=O)C(C)C)n1
[13]
  kinase still bound, per cent of control: 40%
[14]
  kinase still bound, per cent of control: 40%

## CCOc1cc(N2CCC(N3CCCCC3)CC2)ccc1Nc1nc(Nc2ccccc2S(=O)(=O)C(C)C)c2cn[nH]c2n1
[1]
  kinase still bound, per cent of control: 0.05%
[2]
  kinase still bound, per cent of control: 100%
[3]
  kinase still bound, per cent of control: 100%
[4]
  kinase still bound, per cent of control: 100%
[5]
  kinase still bound, per cent of control: 100%
[6]
  kinase still bound, per cent of control: 98%
[7]
  kinase still bound, per cent of control: 100%
[8]
  kinase still bound, per cent of control: 100%
[9]
  kinase still bound, per cent of control: 100%
[10]
  kinase still bound, per cent of control: 100%
[11]
  kinase still bound, per cent of control: 63%
[12]
  kinase still bound, per cent of control: 100%

## CCN1CCN(Cc2ccc(NC(=O)c3ccc(C)c(Oc4ccnc5[nH]ccc45)c3)cc2C(F)(F)F)CC1
[15]
  kinase still bound, per cent of control: 0.7%
